In US12624024B2, “EP2 antagonist compounds” (Reservoir Neuroscience, Inc., priority 2021, dated 2026) one finds IC50 data, which are given here for 40 molecules.

The target of the test is T1, EP2 receptor (Homo sapiens, UniProt P43116).
T1 construct: expressed in transfected cells; host or cells: CHO-K1 cells (ATCC), transient transfection with FuGENE 6
T1 sequence (P43116 whole entry): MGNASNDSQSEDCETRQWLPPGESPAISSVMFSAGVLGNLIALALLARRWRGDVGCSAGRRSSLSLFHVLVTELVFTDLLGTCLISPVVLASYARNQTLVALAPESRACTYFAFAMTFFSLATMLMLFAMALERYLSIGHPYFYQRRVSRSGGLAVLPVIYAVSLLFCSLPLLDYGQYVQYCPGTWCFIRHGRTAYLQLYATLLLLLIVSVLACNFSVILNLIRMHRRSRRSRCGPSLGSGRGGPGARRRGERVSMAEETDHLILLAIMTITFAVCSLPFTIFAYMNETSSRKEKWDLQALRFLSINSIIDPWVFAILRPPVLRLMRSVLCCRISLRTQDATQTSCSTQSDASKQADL
The test can be described thus: EP2 Potency Assay (cAMP TR-FRET, CHO-K1 cells transfected with EP2 receptor, PGE2 at EC80). The following applies: CHO-K1 cells expressing EP2, prostaglandin E2 at EC80, read-out: EP2 Potency (IC50 category). The format is cell-based. Here is the method: Compound potency was measured using a cAMP TR-FRET assay.
After 6 hours incubation, the cell media was replaced with F12 medium supplemented with 10% FBS and 100 U/ml Pen-Strep. 24 hours after transfection, cells were harvested and seeded at a density of 3000 cells/well in a 384 well plate to perform the cAMP assay, using the LANCE Ultra cAMP assay kit (PerkinElmer).
Plates were then centrifuged at 1000 rpm for 1 min, agitated at 600 rpm at R.T. for 2 min, and incubated at 25° C. for 5 min. The reference agonist, prostaglandin E2 (MCE), was added to each well at the appropriate concentration to reach its EC80 value. Plates were then centrifuged at 1000 rpm for 1 min, agitated at 600 rpm at R.T. for 2 min, and incubated at 25° C. for 30 min.
A dose-response curve was prepared by plotting percent inhibition for each compound concentration, and then IC50 was calculated by fitting a curve to the plotted values and extrapolating the IC50 concentration.
For orientation: TR-FRET usually uses a lanthanide donor and a delayed reading to cut background.
On to `O=c1ncc(CN2CCOc3c(Cl)cc(-n4ccc5cc(Cl)ncc54)cc3C2)c[nH]1` [Compound 72], for which the IC50 (as a rule, the point on the concentration scale where inhibition reaches its midpoint) is above 5000 nM.

With `CC(C)(C)OC(=O)n1cc(CN2CCOc3c(Cl)cc(-n4ccc5cc(F)ccc54)cc3C2)cn1` [Compound 104], the IC50 was above 5000 nM.

As to `O=c1cc[nH]cc1CN1CCOc2c(Cl)cc(-n3ccc4cc(F)ccc43)cc2C1` [Compound 176], the IC50 is 1000 to 5000 nM.

In the case of `COc1ncc(CN2CCOc3c(Cl)cc(N4CCCc5cc(F)ccc54)cc3C2)cn1` [Compound 49, 9-chloro-7-(6-fluoro-3,4-dihydroquinolin-1(2H)-yl)-4-((2-methoxypyrimidin-5-yl)methyl)-2,3,4,5-tetrahydrobenzo[f][1,4]oxazepine], the IC50 is above 5000 nM.

For the molecule `OCc1ncc(CN2CCOc3c(Cl)cc(-n4ccc5cc(F)ccc54)cc3C2)cn1` [Compound 141, (5-{[9-chloro-7-(5-fluoroindol-1-yl)-3,5-dihydro-2H-1,4-benzoxazepin-4-yl]methyl}pyrimidin-2-yl)methanol], the IC50 lay in the range of 500 to 1000 nM.

As to `O=c1[nH]ccc(CN2CCOc3c(Cl)cc(-n4ccc5cc(F)ccc54)cc3C2)c1C(F)(F)F` [Compound 195], the 50% inhibitory concentration (IC50) was above 5000 nM.

Consider `Fc1ccc2c(ccn2-c2cc(Cl)c3c(c2)CN(Cc2ccno2)CCO3)c1` [Compound 94], for which the IC50 was in the range of 1000 to 5000 nM.

In the case of `Fc1ccc2c(ccn2-c2cc(Cl)c3c(c2)CN(Cc2cn[nH]n2)CCO3)c1` [Compound 108, 9-chloro-7-(5-fluoroindol-1-yl)-4-(2H-1,2,3-triazol-4-ylmethyl)-3,5-dihydro-2H-1,4-benzoxazepine], the IC50 was 1000 to 5000 nM.

As for `CN(C)C(=O)[C@H]1CC[C@H](CN2CCOc3c(Cl)cc(-n4ccc5cc(F)ccc54)cc3C2)CC1` [Compound 130], the IC50 was 1000 to 5000 nM.

As to `COc1nccc(CN2CCOc3c(Cl)cc(-n4ccc5cc(F)ccc54)cc3C2)n1` [Compound 161], the IC50 fell in the range of 500 to 1000 nM.

On to `Fc1ccc2c(ccn2-c2cc(Cl)c3c(c2)CN(Cc2ccoc2)CCO3)c1` [Compound 90], for which the IC50 is above 5000 nM.

As to `COc1ncc(CN2CCOc3c(Cl)cc(-n4ccc5cc(C)ccc54)cc3C2)cn1` [Compound 14], the IC50 was 500 to 1000 nM.

For the molecule `O=c1nccc(CN2CCOc3c(Cl)cc(-n4ccc5cc(F)ccc54)cc3C2)[nH]1` [Compound 164], the IC50 is above 5000 nM.

Turning to `Fc1ccc2c(ccn2-c2cc(Cl)c3c(c2)CN(Cc2ccc(C(F)F)cc2)CCO3)c1` [Compound 124], the IC50 is above 5000 nM.

With `COc1ncc(CN2CCOc3c(Cl)cc(-n4ccc5nccnc54)cc3C2)cn1` [Compound 43], the IC50 is above 5000 nM.

For `Fc1ccc2c(ccn2-c2cc(Cl)c3c(c2)CN(Cc2nsc(Cl)n2)CCO3)c1` [Compound 115, 9-chloro-4-[(5-chloro-1,2,4-thiadiazol-3-yl)methyl]-7-(5-fluoroindol-1-yl)-3,5-dihydro-2H-1,4-benzoxazepine], the IC50 is above 5000 nM.

With `COc1ncc(CN2CCOc3c(Cl)cc(-n4cc(C)c5cc(F)ccc54)cc3C2)cn1` [Compound 31], the IC50 lay in the range of 500 to 1000 nM.

Consider `COc1nccc(CN2Cc3cc(-n4ccc5cc(F)ccc54)cc(Cl)c3OC[C@H]2C)n1` [Compound 10], for which the IC50 lay in the range of 500 to 1000 nM.

In the case of `O=c1cc(CN2CCc3c(Cl)cc(-n4ccc5cc(F)ccc54)cc3C2)cc[nH]1` [Compound 240], the IC50 is above 5000 nM.

For the molecule `Fc1ccc2c(ccn2-c2cc(Cl)c3c(c2)CN(Cc2cocn2)CCO3)c1` [Compound 95], the concentration for half-maximal inhibition (IC50) is above 5000 nM.

For `CNc1ncc(CN2CCOc3c(Cl)cc(-n4ccc5cc(F)ccc54)cc3C2)cn1` [Compound 147], the IC50 was 100 to 500 nM.

For the molecule `COc1ncc(CN2CCOc3c(Cl)cc(-n4cc(Cl)c5cc(F)ccc54)cc3C2)cn1` [Compound 27], the IC50 fell in the range of 500 to 1000 nM.

`COc1ncc(CN2CCOc3c(Cl)cc(N4CCc5cc(Cl)ccc54)cc3C2)cn1` [Compound 46, 9-chloro-7-(5-chloro-2,3-dihydroindol-1-yl)-4-[(2-methoxypyrimidin-5-yl)methyl]-3,5-dihydro-2H-1,4-benzoxazepine]: the IC50 was in the range of 500 to 1000 nM.

For the molecule `COC(=O)[C@H]1CC[C@@H](CN2CCOc3c(Cl)cc(-n4ccc5cc(F)ccc54)cc3C2)CC1` [Compound 134], the IC50 is above 5000 nM.

Regarding `Fc1ccc2c(ccn2-c2cc(Cl)c3c(c2)CN(Cc2cn[nH]c2)CCO3)c1` [Compound 103, 4-((1H-pyrazol-4-yl)methyl)-9-chloro-7-(5-fluoro-1H-indol-1-yl)-2,3,4,5-tetrahydrobenzo[f][1,4]oxazepane], the IC50 lay in the range of 1000 to 5000 nM.

Regarding `O=c1ncc(CN2CCOc3c(Cl)cc(N4CCc5cc(Cl)ccc54)cc3C2)c[nH]1` [Compound 79], the IC50 lay within 100 to 500 nM.

Consider `O=c1ncc(CN2CCOc3c(Cl)cc(-n4ccc5c(F)c(Cl)ccc54)cc3C2)c[nH]1` [Compound 65], for which the IC50 is 500 to 1000 nM.

Regarding `CNc1cc(CN2CCOc3c(Cl)cc(-n4ccc5cc(F)ccc54)cc3C2)ccn1` [Compound 180, 4-{[9-chloro-7-(5-fluoroindol-1-yl)-3,5-dihydro-2H-1,4-benzoxazepin-4-yl]methyl}-N-methylpyridin-2-amine], the IC50 lay within 1000 to 5000 nM.

`CC(C)(C)OC(=O)Nc1ccc(CN2CCOc3c(Cl)cc(-n4ccc5cc(F)ccc54)cc3C2)nn1` [Compound 168]: the concentration for half-maximal inhibition (IC50) was above 5000 nM.

Turning to `COc1ncc(CN2CCOc3c(Cl)cc(-n4ccc5cc(F)c(F)cc54)cc3C2)cn1` [Compound 24], the half-maximal inhibitory concentration (IC50) fell in the range of 1000 to 5000 nM.

As for `O=c1ncc(CN2CCOc3c(Cl)cc(N4CCOc5cc(F)ccc54)cc3C2)c[nH]1` [Compound 81], the IC50 lay in the range of 1000 to 5000 nM.

On to `O=c1ncc(CN2CCOc3c(Cl)cc(-n4ccc5cc(F)ccc54)cc3C2)c(F)[nH]1` [Compound 155, 5-{[9-chloro-7-(5-fluoroindol-1-yl)-3,5-dihydro-2H-1,4-benzoxazepin-4-yl]methyl}-4-fluoro-3H-pyrimidin-2-one], for which the IC50 lay within 1000 to 5000 nM.

On to `O=c1ncc(CN2CCOc3c(Cl)cc(-n4ccc5cc(F)cnc54)cc3C2)c[nH]1` [Compound 70, 5-((9-chloro-7-(5-fluoro-1H-pyrrolo[2,3-b]pyridin-1-yl)-2,3-dihydrobenzo[f][1,4]oxazepin-4(5H)-yl)methyl)pyrimidin-2(1H)-one], for which the IC50 lay in the range of 1000 to 5000 nM.

Turning to `COc1ncc(CN2CCOc3c(Cl)cc(-n4ccc5cc(SC)ccc54)cc3C2)cn1` [Compound 21], the IC50 was above 5000 nM.

Regarding `O=c1ccc(CN2CCOc3c(Cl)cc(-n4ccc5cc(F)ccc54)cc3C2)c[nH]1` [Compound 175], the IC50 fell in the range of 100 to 500 nM.

With `CN(C)c1ncc(CN2CCOc3c(Cl)cc(-n4ccc5cc(F)ccc54)cc3C2)cn1` [Compound 148], the IC50 lay within 500 to 1000 nM.

`O=c1ncc(CN2CCOc3c(Cl)cc(-c4cccc5c4CCCC5)cc3C2)c[nH]1` [Compound 83]: the concentration for half-maximal inhibition (IC50) is above 5000 nM.

On to `O=c1ncc(CN2CCOc3c(Cl)cc(-c4ncc5ccccn45)cc3C2)c[nH]1` [Compound 75], for which the IC50 lay within 500 to 1000 nM.

On to `C[C@@H]1COc2c(Cl)cc(-n3ccc4cc(F)ccc43)cc2CN1Cc1cc[nH]c(=O)n1` [Compound 12], for which the IC50 fell in the range of 500 to 1000 nM.

For `Fc1ccc2c(ccn2-c2cc(Cl)c3c(c2)CN(Cc2cccnn2)CCO3)c1` [Compound 166], the IC50 was 500 to 1000 nM.
